Laboratory results from ChEMBL document CHEMBL2021863, “Design and synthesis of new 4-pyrazolin-3-yl-1,2,3-triazoles and 1,2,3-triazol-4-yl-pyrazolin-1-ylthiazoles as potential antimicrobial agents” (2012).
In brackets after ≈: the same amount, converted by molar mass.

How the values were obtained:
Type in all cases: functional
[1] = system: Saccharomyces cerevisiae; test: Antifungal activity against Saccharomyces cerevisiae by two-fold serial dilution method
[2] = system: Pseudomonas aeruginosa; test: Antimicrobial activity against Pseudomonas aeruginosa ATCC 27953 at 100 ug/ml after 24 hrs by agar well diffusion assay; conditions: ATCC 27953, 24 h, read-out: DIZ
[3] = system: Klebsiella pneumoniae; test: Antimicrobial activity against Klebsiella pneumoniae ATCC 13883 at 100 ug/ml after 24 hrs by agar well diffusion assay; conditions: ATCC 13883, 24 h, read-out: DIZ
[4] = system: Micrococcus luteus; test: Antimicrobial activity against Sarcina lutea at 100 ug/ml after 24 hrs by agar well diffusion assay; conditions: read-out: DIZ
[5] = system: Bacillus subtilis; test: Antimicrobial activity against Bacillus subtilis ATCC 6633 at 100 ug/ml after 24 hrs by agar well diffusion assay; conditions: ATCC 6633, 24 h, read-out: DIZ
[6] = system: Pseudomonas aeruginosa; test: Antimicrobial activity against Pseudomonas aeruginosa ATCC 27953 after 24 hrs by two-fold serial dilution method; conditions: ATCC 27953, 24 h
[7] = system: Saccharomyces cerevisiae; test: Antifungal activity against Saccharomyces cerevisiae at 100 ug/ml after 24 hrs by agar well diffusion assay; conditions: read-out: DIZ
[8] = system: Candida albicans; test: Antifungal activity against Candida albicans NRRL Y-477 at 100 ug/ml after 24 hrs by agar well diffusion assay; conditions: NRRL Y-477, 24 h, read-out: DIZ
[9] = system: Bacillus subtilis; test: Antimicrobial activity against Bacillus subtilis ATCC 6633 after 24 hrs by two-fold serial dilution method; conditions: ATCC 6633, 24 h
[10] = system: Candida albicans; test: Antifungal activity against Candida albicans NRRL Y-477 by two-fold serial dilution method
[11] = system: Escherichia coli; test: Antimicrobial activity against Escherichia coli ATCC 25922 at 100 ug/ml after 24 hrs by agar well diffusion assay; conditions: ATCC 25922, 24 h, read-out: DIZ
[12] = system: Staphylococcus aureus; test: Antimicrobial activity against Staphylococcus aureus ATCC 29213 at 100 ug/ml after 24 hrs by agar well diffusion assay; conditions: ATCC 29213, 24 h, read-out: DIZ
[13] = system: Micrococcus luteus; test: Antimicrobial activity against Sarcina lutea after 24 hrs by two-fold serial dilution method
[14] = system: Staphylococcus aureus; test: Antimicrobial activity against Staphylococcus aureus ATCC 29213 after 24 hrs by two-fold serial dilution method; conditions: ATCC 29213, 24 h
[15] = system: Klebsiella pneumoniae; test: Antimicrobial activity against Klebsiella pneumoniae ATCC 13883 after 24 hrs by two-fold serial dilution method; conditions: ATCC 13883, 24 h
[16] = system: Escherichia coli; test: Antimicrobial activity against Escherichia coli ATCC 25922 after 24 hrs by two-fold serial dilution method; conditions: ATCC 25922, 24 h
[17] = system: Priestia megaterium; test: Antimicrobial activity against Bacillus megaterium ATCC 9885 after 24 hrs by two-fold serial dilution method; conditions: ATCC 9885, 24 h
[18] = system: Priestia megaterium; test: Antimicrobial activity against Bacillus megaterium ATCC 9885 at 100 ug/ml after 24 hrs by agar well diffusion assay; conditions: ATCC 9885, 24 h, read-out: DIZ

Structure (SMILES) | MIC [1] [µg/mL] | zone of inhibition at 100 µg/mL [2] [mm] | zone of inhibition at 100 µg/mL [3] [mm] | zone of inhibition at 100 µg/mL [4] [mm] | zone of inhibition at 100 µg/mL [5] [mm] | MIC [6] [µg/mL] | zone of inhibition at 100 µg/mL [7] [mm] | zone of inhibition at 100 µg/mL [8] [mm] | MIC [9] [µg/mL] | MIC [10] [µg/mL] | zone of inhibition at 100 µg/mL [11] [mm] | zone of inhibition at 100 µg/mL [12] [mm] | MIC [13] [µg/mL] | MIC [14] [µg/mL] | MIC [15] [µg/mL] | MIC [16] [µg/mL] | MIC [17] [µg/mL] | zone of inhibition at 100 µg/mL [18] [mm]
Cc1ccc(-n2nnc(C3=NN(c4nc(-c5ccc(Cl)cc5)cs4)C(c4ccc(F)cc4)C3)c2C)cc1 (centres undefined) | 16.5 (≈ 31.2 µM) | 24 | 28 | 22 | 30 | 16.5 (≈ 31.2 µM) | 28 | 25 | 8.25 (≈ 15.6 µM) | 16.5 (≈ 31.2 µM) | 29 | 28 | 66 (≈ 125 µM) | 8.25 (≈ 15.6 µM) | 16.5 (≈ 31.2 µM) | 33 (≈ 62.4 µM) | – | –
Cc1ccc(-n2nnc(C3=NN(c4nc(-c5ccc(Br)cc5)cs4)C(c4ccc(F)cc4)C3)c2C)cc1 (centres undefined) | 8.25 (≈ 14.4 µM) | – | 24 | 22 | 26 | – | 30 | 30 | 33 (≈ 57.5 µM) | 8.25 (≈ 14.4 µM) | 22 | 30 | 66 (≈ 115 µM) | 8.25 (≈ 14.4 µM) | 16.5 (≈ 28.8 µM) | 16.5 (≈ 28.8 µM) | 33 (≈ 57.5 µM) | 22
Cc1ccc(-n2nnc(C3=NN(C4=NC(=O)CS4)C(c4ccc(F)cc4)C3)c2C)cc1 (centres undefined) | 66 (≈ 152 µM) | 20 | – | 16 | – | 33 (≈ 75.9 µM) | 18 | 16 | – | 132 (≈ 304 µM) | 28 | – | 132 (≈ 304 µM) | – | – | 8.25 (≈ 19 µM) | 8.25 (≈ 19 µM) | 30
Cc1ccc(-n2nnc(C(=O)/C=C/c3ccccc3)c2C)cc1 | 66 (≈ 218 µM) | 28 | 16 | 26 | 26 | 8.25 (≈ 27.2 µM) | 22 | 24 | 33 (≈ 109 µM) | 16.5 (≈ 54.4 µM) | 32 | 22 | 16.5 (≈ 54.4 µM) | 16.5 (≈ 54.4 µM) | 132 (≈ 435 µM) | 8.25 (≈ 27.2 µM) | – | –
Cc1ccc(-n2nnc(C(=O)/C=C/c3ccc(F)cc3)c2C)cc1 | 16.5 (≈ 51.3 µM) | 16 | 16 | 16 | 26 | 132 (≈ 411 µM) | 23 | 22 | 16.5 (≈ 51.3 µM) | 16.5 (≈ 51.3 µM) | – | 20 | 132 (≈ 411 µM) | 16.5 (≈ 51.3 µM) | 132 (≈ 411 µM) | – | 16.5 (≈ 51.3 µM) | 24
Cc1ccc(-n2nnc(C(=O)/C=C/c3ccc(C#N)cc3)c2C)cc1 | 8.25 (≈ 25.1 µM) | 26 | 24 | 24 | 28 | 8.25 (≈ 25.1 µM) | 30 | 24 | 8.25 (≈ 25.1 µM) | 16.5 (≈ 50.2 µM) | 16 | 23 | 16.5 (≈ 50.2 µM) | 16.5 (≈ 50.2 µM) | 16.5 (≈ 50.2 µM) | 132 (≈ 402 µM) | – | –
Cc1ccc(-n2nnc(C(=O)/C=C/c3ccc(N4CCCCC4)cc3)c2C)cc1 | 66 (≈ 171 µM) | 16 | – | 28 | 18 | 132 (≈ 342 µM) | 20 | 18 | 33 (≈ 85.4 µM) | 16.5 (≈ 42.7 µM) | 28 | 16 | 33 (≈ 85.4 µM) | 132 (≈ 342 µM) | – | 8.25 (≈ 21.3 µM) | 33 (≈ 85.4 µM) | 20
Cc1ccc(-n2nnc(C3=NNC(c4ccccc4)C3)c2C)cc1 (centres undefined) | 8.25 (≈ 26 µM) | 28 | – | 30 | 32 | 8.25 (≈ 26 µM) | 28 | 28 | 8.25 (≈ 26 µM) | 8.25 (≈ 26 µM) | 16 | 34 | 16.5 (≈ 52 µM) | 8.25 (≈ 26 µM) | – | 132 (≈ 416 µM) | 132 (≈ 416 µM) | 16
Cc1ccc(-n2nnc(C3=NNC(c4ccc(F)cc4)C3)c2C)cc1 (centres undefined) | 66 (≈ 197 µM) | 30 | 16 | 18 | – | 8.25 (≈ 24.6 µM) | 18 | 16 | – | 132 (≈ 394 µM) | 16 | 20 | 66 (≈ 197 µM) | 33 (≈ 98.4 µM) | 132 (≈ 394 µM) | 132 (≈ 394 µM) | 132 (≈ 394 µM) | 16
Cc1ccc(-n2nnc(C3=NNC(c4ccc(C#N)cc4)C3)c2C)cc1 (centres undefined) | 8.25 (≈ 24.1 µM) | 28 | 30 | 28 | 26 | 8.25 (≈ 24.1 µM) | 30 | 28 | 33 (≈ 96.4 µM) | 8.25 (≈ 24.1 µM) | 30 | – | 8.25 (≈ 24.1 µM) | – | 8.25 (≈ 24.1 µM) | 8.25 (≈ 24.1 µM) | 33 (≈ 96.4 µM) | 24
Cc1ccc(-n2nnc(C3=NNC(c4ccc(N5CCCCC5)cc4)C3)c2C)cc1 (centres undefined) | 66 (≈ 165 µM) | – | – | 18 | 16 | – | 18 | 18 | 132 (≈ 330 µM) | 132 (≈ 330 µM) | – | 18 | 33 (≈ 82.4 µM) | 132 (≈ 330 µM) | – | – | – | –
Cc1ccc(-n2nnc(C3=NN(C(=S)Nc4ccccc4)C(c4ccccc4)C3)c2C)cc1 (centres undefined) | 16.5 (≈ 36.5 µM) | 24 | 18 | 20 | 26 | 132 (≈ 292 µM) | 26 | 24 | – | 16.5 (≈ 36.5 µM) | – | 18 | 66 (≈ 146 µM) | 8.25 (≈ 18.2 µM) | 16.5 (≈ 36.5 µM) | 8.25 (≈ 18.2 µM) | 8.25 (≈ 18.2 µM) | 24
Cc1ccc(-n2nnc(C3=NN(C(=S)Nc4ccccc4)C(c4ccc(F)cc4)C3)c2C)cc1 (centres undefined) | 16.5 (≈ 35.1 µM) | – | 22 | 20 | 27 | – | 24 | 22 | 16.5 (≈ 35.1 µM) | 16.5 (≈ 35.1 µM) | – | 16 | 16.5 (≈ 35.1 µM) | 132 (≈ 281 µM) | 16.5 (≈ 35.1 µM) | – | 16.5 (≈ 35.1 µM) | 20
Cc1ccc(-n2nnc(C3=NN(C(=S)Nc4ccccc4)C(c4ccc(C#N)cc4)C3)c2C)cc1 (centres undefined) | 8.25 (≈ 17.3 µM) | 22 | – | 24 | – | 66 (≈ 138 µM) | 24 | 22 | – | 33 (≈ 69.1 µM) | – | 20 | 33 (≈ 69.1 µM) | 33 (≈ 69.1 µM) | – | – | – | –
Cc1ccc(-n2nnc(C3=NN(C(=S)NC(=O)c4ccccc4)C(c4ccc(N5CCCCC5)cc4)C3)c2C)cc1 (centres undefined) | 8.25 (≈ 14.6 µM) | 26 | – | 23 | 24 | 33 (≈ 58.5 µM) | 30 | 30 | 33 (≈ 58.5 µM) | 8.25 (≈ 14.6 µM) | 32 | 16 | 66 (≈ 117 µM) | 132 (≈ 234 µM) | – | 8.25 (≈ 14.6 µM) | 8.25 (≈ 14.6 µM) | 30
Cc1ccc(-n2nnc(C3=NN(C(N)=S)C(c4ccc(F)cc4)C3)c2C)cc1 (centres undefined) | 8.25 (≈ 20.9 µM) | 26 | – | 16 | – | 16.5 (≈ 41.8 µM) | 30 | 26 | – | 16.5 (≈ 41.8 µM) | 22 | – | 132 (≈ 335 µM) | – | – | 16.5 (≈ 41.8 µM) | 132 (≈ 335 µM) | 18
